In patent US20260091141A1, “GENE EDITING METHODS, SYSTEMS, AND COMPOSITIONS FOR TREATING SPINAL MUSCULAR ATROPHY” (The Broad Institute, Inc., priority 2023, published 2026):

Legend:
[1] = system: SMN protein; experiment: SMN protein levels in Δ7SMA mESCs by Western blot, normalized to histone H3; type: cell-based, mouse
Text: Precise deletions are defined as those that remove ≥4 nt of ISS-N1 including ≥4 nt of the 3′-hnRNP A1/A2 domain. […] Precise deletions are defined as those that enable the addition of five or more C-terminal amino acids to SMNΔ7 (SMNΔ7mod) to restore protein stability. […] The observed fraction of precise deletions, splice acceptor (SA) deletions, and other indels are shown. […] FIG. 1I provides stacked bar charts showing SMN2 splice variants following editing with C-nuc and C-CBE, as measured by high-throughput sequencing of mRNA transcripts amplified with exon 6 and polyA-primers. Splicing activity of exon 7 spliced and unspliced sub-fractions is shown. Asterisks indicate *≤0.05. **≤0.01, and ***≤0.005.
(§1) Risdiplam doses of 1.0, 0.5, 0.25, or 0.1 μM were used (shown from left to right in the graph). […] The asterisk indicates p<0.05 by Welch's two-tailed t-test. […] UG=unrelated guide; NT=no treatment.
(§2) UG-unrelated guide; NT=no treatment.

[2] = system: SMN2 transcript; experiment: SMN2 / exon 7 mRNA transcript levels in Δ7SMA mESCs; type: cell-based, mouse
Experimental: as §1, §2

[3] = system: SMN2 exon 7 splicing; experiment: SMN2 exon 7 splicing by RT-PCR (exons 6 to 8) and automated electrophoresis in Δ7SMA mESCs; type: cell-based, mouse
Experimental: To assess whether nuclease-mediated editing of ISS-N1 improved exon 7 splicing, reverse-transcription PCR (RT-PCR) of SMN2 was performed from exons 6 to 8, and SMNΔ7 and full-length SMN products were quantified by automated electrophoresis (FIG. 1C).
For Δ7SMA mESCs nusinersen experiments, cells were transfected with 20 nM of fully 2′-O-methoxyethyl (MOE)-modified ASO (5′-[…]-3′) (SEQ ID NO: 469) on a phosphorothioate backbone (TriLink), using Lipofectamine 3000 (ThermoFisher Scientific). After 24 hours media was replaced every other day with fresh mESC+2i media. For splicing rescue by risdiplam, mESC media was supplemented with 0.1-1 μM of risdiplam (RG7916, Selleck Chemicals LLC) in DMSO, as indicated. Cells were harvested at the indicated timepoints.
mRNA was isolated from […] mESCs with the RNeasy mini kit (Qiagen), and reverse transcription was performed using SuperScript IV (ThermoFisher) according to the manufacturer's protocols. For targeted SMN2 qPCR and splice product quantitation by automated electrophoresis, reverse transcription was performed with random hexamers. Splicing inclusion of SMN2 exon 7 was quantified by automated electrophoresis using Tape Station (Agilent). For unbiased SMN2 splice product analysis by high-throughput sequencing, reverse transcription was performed using a custom oligo-dT primer with a Read 2 Illumina sequencing stub. […]

[4] = system: SMN protein; experiment: Western blot of SMN protein in Δ7SMA mESCs; type: cell-based, mouse; conditions: normalized to histone H3
Experimental: Cells harvested for western blot were washed with ice-cold PBS and incubated at 4° C. for 30 min while rocking in RIPA lysis buffer (ThermoFisher) supplemented with 1 mM PMSF (ThermoFisher) and complete EDTA-free protease inhibitor cocktail (Roche). Lysates were clarified by centrifugation at 12,000 rpm at 4° C. for 20 min. Lysates were normalized using BCA (Pierce BCA Protein Assay Kit) and combined with 4× Laemelli buffer (BioRad) and DTT (ThermoFisher) at a final concentration of 1 mM. 10 μg of reduced protein were loaded per gel lane, and transfer was performed with an iBlot 2 dry blotting system (ThermoFisher) using the following program: 20V for 1 min, then 23 V for 4 min, then 25 V for 2 min, for a total transfer time of 7 minutes. Blocking was performed at room temperature for 60 minutes with block buffer: 1% BSA in TBST (150 mM NaCl, 0.5% Tween-20, 50 mM Tris-Cl, pH 7.5).
Membranes were then incubated in primary antibody diluted in block buffer for 2 hours at room temperature. After a washing, secondary antibodies diluted in TBST were added and incubated for 1 hour at room temperature. Membranes were washed again and imaged using a LI-COR Odyssey. Wash steps were 3×5-minute washes in TBST. […]

[5] = system: SMN2 mRNA; experiment: RT-qPCR of SMN2 mRNA abundance in Δ7SMA mESCs; type: cell-based, mouse
Experimental: To investigate how exon 8 SA disruption affects SMN2 transcripts, reverse transcription quantitative PCR (RT-qPCR) was performed to measure the abundance of SMN2 mRNA in treated and control Δ7SMA mESCs. The terminal sequence of SMN2, including intron 7 and the 3′ untranslated region (UTR) of exon 8, encode negative regulators of gene expression and mRNA transcript stability^21,71,72. Alternative splicing at the terminus of SMN2 therefore may result in increased SMN protein levels. […]
To investigate whether risdiplam and nusinersen treatment of Δ7SMA mESCs affect SMN2 transcript abundance, RT-qPCR was performed, and SMN2 mRNA levels were quantified in treated and genome edited cells (FIG. 7G). […] In contrast, a 1.8-fold reduction of SMN2 mRNA was detected 48 hours after nusinersen treatment relative to untreated Δ7SMA mESCs (Welch's two-tailed t-test p<0.005) that explains the relative reduction in SMN protein levels compared to the base editing approach (FIG. 2G).
mRNA was isolated from […] mESCs with the RNeasy mini kit (Qiagen), and reverse transcription was performed using SuperScript IV (ThermoFisher) according to the manufacturer's protocols. For targeted SMN2 qPCR and splice product quantitation by automated electrophoresis, reverse transcription was performed with random hexamers. […]

[6] = system: Δ7SMA mice; experiment: Electrophysiological measurements (CMAP, MUNE) in Δ7SMA mice; type: in vivo, mouse; conditions: PND12, 2.5×10^13 vg/kg Zolgensma, 0.1 mg/kg risdiplam IP daily
Experimental: Compound muscle action potential (CMAP) amplitude and motor unit number estimation (MUNE) from the gastrocnemius muscle of treated animals was performed to assess loss of motor neuron functional integrity, a key feature of SMA and preclinical SMA models^131. […] MUNE were reduced by 50% in untreated Δ7SMA animals compared to heterozygous mice. […] In contrast, little or no improvement in MUNE was observed following Zolgensma or 0.1 mg/kg risdiplam administration (50% and 75% relative to heterozygotes respectively, Kruskal-Wallis test p>0.6). […] Thus, neonatal ICV injection of AAV9-ABE measurably rescues SMA pathophysiology of spinal motor neurons.
Compound muscle action potential (CMAP) and motor unit number estimate (MUNE) measurements were performed as previously described^178. Briefly, at PND12 the right sciatic nerve was stimulated with a pair of insulated 28-gauge monopolar needles (Teca, Oxford Instruments Medical, NY) placed in proximity to the sciatic nerve in the proximal hind limb.
Recording electrodes consisted of a pair of fine ring wire electrodes (Alpine Biomed, Skovlunde, Denmark). […]
For MUNE, an incremental stimulus technique similar to a previously described procedure was used^178. […] The peak-to-peak amplitude of each individual incremental response was calculated by subtracting the amplitude of the prior response. […]

[7] = system: SMN protein; conditions: patient tissues; cited from earlier work
[8] = system: SMN protein; conditions: SMA patients; cited from earlier work
[9] = system: DNA; conditions: SpCas9 mutation relative to SEQ ID NO: 209; UniProtKB Q99ZW2 entry; cited from earlier work

For `Cc1cn2nc(-c3cc(=O)n4cc(N5CCNC6(CC6)C5)ccc4n3)cc(C)c2n1` [risdiplam], the “SMN protein levels, increase compared to Δ7SMA mESCs” value [1] was 9.5 fold, the “effect on SMN2 transcript levels” value [2] was “interfered with the endogenous regulation of SMN transcript levels” and the “exon 7 splicing” value [3] was 89±4.3%. For the same molecule, the “increase in SMN protein levels relative to untreated” value [4] was 9.1 fold, the “increase in SMN2 transcripts relative to untreated cells” value [5] was 1.6 fold and the “MUNE relative to heterozygotes” value [6] was 75%. The “increase of SMN protein levels” value [7] was ~2 fold and the “increase of SMN protein levels in patient tissues” value [8] was ~2 fold.
For “H840A: SpCas9 mutation relative to SEQ ID NO: 209”, the “Function/Characteristic (as reported)” value [9] is listed as “Nickase mutant which cleaves the non-”.
